From publication PMC3006138, “Fexinidazole – A New Oral Nitroimidazole Drug Candidate Entering Clinical Development for the Treatment of Sleeping Sickness” (PLoS Neglected Tropical Diseases, 2010)

Assay: Hepatocyte intrinsic clearance and metabolite profile
Assay type: in vitro ADME, dog
Settings: male, beagle, dog, cryopreserved hepatocytes, 1 µM
Description: Fexinidazole was incubated with cryopreserved hepatocytes from male CD-1 mice, male Sprague Dawley rats, male beagle dogs, male cynomolgus monkeys, and from pooled white or African-American human donor samples (purchased commercially), at concentrations of 1 µM and 10 µM. […] The incubated samples were analyzed by LC-MS after extraction into acetonitrile.
A quality control analysis of fexinidazole was performed via 1H-NMR in DMSO and LC- […]
provided by the Swiss Tropical Institute (Basel, Switzerland).
Reagents and solvents were of analytical grade and obtained from Sigma-Aldrich (St. Louis, […]
Cryopreserved hepatocytes from the male CD1 mouse, lot CSI; male Sprague Dawley rat, lot LPL; male beagle dog, lot BWX; male cynomolgus monkey, lot EHH; and pooled human samples, lot MJI, were purchased from In Vitro Technologies Inc (Baltimore, Maryland, […]
5.4. In vitro Incubations
On the day of the experiment a 10 mM stock solution of fexinidazole in DMSO was prepared and, within 3 hours, aliquots of this freshly prepared solution, after suitable dilution, were added to the incubation matrix, to reach fexinidazole final concentrations of 1 and 10 µM. The final percentage of DMSO was 0.01% in the incubation samples for the […]
On the day of experiment, the cryopreserved hepatocytes were thawed following the detailed instructions provided by the supplier.
The number of viable cells was determined using a Trypan Blue exclusion method.
5.4.1. Intrinsic Clearance Study […]
µM with mouse, rat, dog, monkey and human hepatocytes (300000 cells/mL for the mouse and 1 million cells/mL for the other species) in a final incubation volume of 0.75 mL […]
Incubations were performed in duplicate in a 48-well plate under shaking. Sampling was performed using an automatic liquid handling system (Multiprobe II EX, Packard). At 0, 1, 5, 10, 15, 20, 30, 60 and 120 minutes, 50 µL aliquots of the incubates were taken, then 80 µL of ice-cold acetonitrile and 20 µL of 1 µM warfarin in acetonitrile (internal standard) were added, and samples centrifuged at 2000 rpm for 20 min. The supernatant was analyzed by LC-MS/MS. […]
the medium alone at t = 0 and 120 minutes.
For the determination of phase I and phase II activity of hepatocytes, 7-ethoxycoumarin (7-EC) 1 µM, and 7-hydroxycoumarin (7-HC) 30 µM were used as positive controls and incubated under the same conditions as fexinidazole. Aliquots of incubates were taken at 0, 10, 20, 30, 60 and 120 minutes and processed as fexinidazole samples.
5.4.2. Metabolite Profile Study
For metabolite profiling, fexinidazole was incubated at a concentration of 10 µM with mouse, rat, dog, monkey and human hepatocytes (300000 cells/mL for the mouse and 1 million cells/mL for the other species) in a final incubation volume of 2 mL Leibovitz L-15 […]
Aliquots of the incubation samples were taken at t = 0, 30 and 120 minutes; the metabolism was stopped by the addition of an equal volume of cold acetonitrile and the samples centrifuged at 1500 rpm for 20 min. The supernatant was stored at -20°C until analysis. Control incubations were performed with the compound in the medium alone […]
5.5. Analysis of Samples for Intrinsic Clearance Determination
The analysis of the samples for intrinsic clearance determination was performed by an LC-MS/MS method, using the following conditions:
HPLC Equipment and Conditions
HPLC system Agilent 1100 binary pump (Agilent, Palo Alto, USA)
Autosampler CTC Pal (Alfatech, San Jose, USA)
Analytical column Guard Column SB-C8 4.6 x 12.5 mm, 5 µm (Zorbax)
Column temperature ambient
Mobile phase A 10 mM ammonium formate pH 4.0: acetonitrile (95:5, v:v)
Mobile phase B 10 mM ammonium formate pH 4.0: acetonitrile (5:95, v:v) […]
Gradient conditions Step Total time (min) flow (µL/min) %A % B […]
MS Equipment and Conditions
Mass spectrometer API 4000 Triple Quadrupole (MDS-Sciex, Toronto, […]
Source Turbo Ion Spray (TIS)
Ion mode Positive for fexinidazole and 7-EC.
Negative for 7-HC, 7-HC sulphate and 7-HC glucuronide.

Q: With `CSc1ccc(OCc2ncc([N+](=O)[O-])n2C)cc1` [Fexinidazole, 1-methyl-2-((p-(methylthio)phenoxy)methyl)-5-nitroimidazole] as the molecule, how does the half-life at 1 µM read?
A: The half-life at 1 µM was 1.1 min.

Q: And the CLint scaled at 1 µM (read-out: CLint in vitro)?
A: The CLint scaled at 1 µM was > 3000 mL/min/kg.

Q: What about the hepatocyte CLint at 1 µM (read-out: CLint in vitro) of the same molecule?
A: The hepatocyte CLint at 1 µM was 656 µL/min/1e6 cells.
